Results reported in patent US11760754B2, “Heterocyclic mitochondrial activity inhibitors and uses thereof” (UNIVERSITÉ DE MONTRÉAL, priority 2017, dated 2023).
Like-named read-outs stand apart in the source and are kept apart here.

Columns and labels:
OCI-AML3 cells [1] = assay: OCI-AML3 cell growth inhibition, dose-response viability assay (CellTiterGlo); format: cell-based; conditions: OCI-AML3 cells
How it was run: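 OCI-AML3 cells seeded, then exposed to compound in serial dilutions from 10 μM to 0.5 nM, in duplicate or quadruplicate. Viability read by CellTiter-Glo.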

[2] = test system: Normal primitive CD34-positive cord blood cells; assay: cells; conditions: Homo sapiens, CD34-positive cell, read-out: EC50 in normal primitive CD34-positive cord blood cells
OCI-AML5 cells = conditions: 6-day culture, 384-well plates
ETC complex I = conditions: cell free assay
Excerpt: The cell-free kit assay for ETC complex I activity was purchased from MitoSciences (Abcam, Cambridge, UK), and used in accordance with the manufacturer's protocol.

OCI-AML3 leukemic cells [3] = test system: OCI-AML3 leukemic cells
Experimental: Oxygen consumption rates and extracellular acidification rates were measured using a 96-well Seahorse Bioanalyzer XFe96® or XFe24® according to the manufacturer's instructions (Agilent Technologies). Seahorse XF Base medium was supplemented with 1 mM pyruvate, 2 mM glutamine and 10 mM glucose in the case of Mitochondrial Stress Test and with 1 mM pyruvate, 2 mM glutamine and no glucose in the case of Glycolytic Stress Test. The pH of the Seahorse media was then adjusted at 7.4 prior to assay. In brief, leukemic cells were seeded into Seahorse 96-well (or 24-well) plates pre-coated for 3 h with poly-lysine (Sigma-Aldrich, P4707) at a density of 75,000 cells/well in 100 μL (or 150,000 cells/well, in 150 μL) of temperature/CO2 pre-adjusted Seahorse media per well. The Seahorse plates were then centrifuged at 1400 rpm for 5 min. An additional 75 μL (or 375 μL) of Seahorse media was then added and cells were eventually analyzed following the manufacturer's instructions by adding compounds in a constant volume of 25 μL (or 75 μL). Compounds were acutely injected in cells at a final concentration of 1 μM for Mubritinib, 1 μM for Oligomycin, 0.5 μM for FCCP, 0.5 μM for Rotenone/Antimycin A, Glucose 10 mM and 2-Deoxy-Glucose 50 mM.

OCI-AML3 cells [4] = test system: OCI-AML3 cells
Experimental: LC/MS metabolite measurements were carried out at the McGill Metabolomics platform. Authentic metabolite standards were purchased from Sigma-Aldrich Co., while the following LC/MS grade solvents and additives were purchased from Fisher: ammonium acetate, formic acid, water, methanol, and acetonitrile. OCI-AML3 cells (5 million cells, quadruplicates, treated with either DMSO or Mubritinib 500 nM for 20 h) were washed twice with ice-cold 150 mM ammonium formate pH 7.2. Metabolites were then extracted using 380 μl of LC/MS grade 50% methanol/50% water mixture and 220 μl of cold acetonitrile. Samples were then homogenized by 1.4 mm ceramic bead beating 2 min at 30 Hz (TissueLyser, Qiagen). A volume of 300 μl of ice-cold water and 600 μl of ice-cold methylene chloride were added to the lysates. Samples were vortexed and allowed to rest on ice for 10 min for phase separation followed by centrifugation at 4,000 rpm for 5 min. The upper aqueous layer was transferred to a fresh pre-chilled tube. Samples were eventually dried by vacuum centrifugation operating at −4° C. (Labconco) and stored at −80° C. until ready for LC-MS/MS data collection. For LC-MS/MS analysis, specimens were first re-suspended in 50 μl of water and clarified by centrifugation for 15 min at 15,000 rpm at 1° C. Samples were maintained at 4° C. for the duration of the LC-MS/MS analysis in the autosampler. Specimens were separated by U-HPLC (Ultra-High-Performance Liquid Chromatography) (1290 Infinity, Agilent Technologies) using a Scherzo SM-C18 (3 mm×150 mm) 3 μm column and guard column (Imtakt USA) operating at 10° C.

OCI-AML3 cells [5] = test system: OCI-AML3 cells; remark: listed apart in the source
Excerpt: (§1) The following FACS antibodies were used: anti-human CD45 Pacific Blue (BioLegend 304029), CD45 fluorescein isothiocyanate (FITC; BioLegend 304006), CD33 phycoerythrin (PE; BD Bioscience 555450), CD33 BV421 (BD 562854), CD34 […] (APC; BD Bioscience 555824), CD34 APC (Stem Cell Technologies 10613), CD3 FITC (BD Bioscience 555332), CD4 APC-Cy7 (BD 560158), CD8 APC (BD 555369), CD3 PE-Cy5 (BD 555334), CD19 PE-Cy7(BD Bioscience 557835), anti-mouse CD45.1 APC-efluor730 (eBioscience 47-0453-82), ERBB2-PE (Biolegend®, 324406), Annexin V FITC (BD Bioscience®, 556419). Dead cells were stained using Propidium iodide at a final concentration of 1 μg/mL. For ROS quantification cells were stained with 1 μM H2DCFDA (Thermo Fisher, […]) under normal growth conditions. Cells were analyzed on LSRII® flow cytometer (BD Bioscience®), BD Canto® II cytometer (BD Bioscience) or on an IQue Screener (Intellicyt®) and results were analyzed with BD fluorescence-activated cell sorter (FACS) Diva®4.1 and FlowJo®X software.

OCI-AML3 leukemic cells [6] = conditions: 500 nM, 24 h
Excerpt: as §1

Complex I = conditions: OCI-AML3 cells, ubiquinone-dependent vs -independent activity
[7] = test system: pyruvate dehydrogenase (PDH); conditions: OCI-AML3 cells
AML patient cells = assay: Primary AML patient cell dose-response viability assay (chemical screen); conditions: for EC50: Homo sapiens
[8] = 500 nM, 24 h, relative to DMSO control

For `FC(F)(F)c1ccc(/C=C/c2nc(COc3ccc(CCCCn4ccnn4)cc3)co2)cc1` [Mubritinib], which “OCI-AML3 cells sensitive to the compound (dose response)” value (OCI-AML3 cells [1]) is on record?
Its value is “sensitive”.

What about the EC50 [2] of the same compound?
The EC50 was > 375 nM.

And the “OCI-AML5 response to compound-induced cell death” value (OCI-AML5 cells)?
The value was “resistant”.

What about the “effect on ETC Complex I activity” value (ETC complex I) of the same compound?
The value was “inhibitory effect”.

What about the glycolytic switch (OCI-AML3 leukemic cells [3]; OCI-AML3 cells) of the same compound?
Its glycolytic switch is “induce a glycolytic switch”.

And the oxygen consumption rate (OCI-AML3 leukemic cells [3]; acute injection, 1 μM)?
The oxygen consumption rate was “impaired”.

And the “levels of oxidized glutathione” value (OCI-AML3 cells [4]; [8])?
The value was “increased”.

What about the “levels of reduced glutathione” value (OCI-AML3 cells [4]; [8]) of the same compound?
The value was “decreased”.

And the “levels of citric acid cycle intermediates (citrate, alpha-ketoglutarate, succinate, fumarate, malate)” value (OCI-AML3 cells [4]; OCI-AML3 cells)?
Its value is “reduces”.

What about the “compound-induced apoptosis in the presence of ROS scavenger N-acetyl-cysteine (NAC)” value (OCI-AML3 cells [5]; 100 nM 24 h, 6 mM NAC pre-incubation 4 hours) of the same compound?
The value was “significantly decreased”.

And the “Annexin V staining (marker of apoptosis)” value (OCI-AML3 cells [5]; 24 hours, 100 nM or 10 μM)?
The value was “increase”.

And the “number of dead (PI-positive) cells” value (OCI-AML3 cells [5]; 27 hours of treatment)?
The value was “increase”.

What about the “live cell counts (PI-negative cells)” value (OCI-AML3 cells [5]; four days of treatment, dose-dependent) of the same compound?
Its value is “reduction”.

What about the “level of ROS activity (hydroxyl, peroxyl), DCFDA” value (OCI-AML3 leukemic cells [6]) of the same compound?
Its value is “increased”.

What about the “nature of inhibitory effect on complex I” value (Complex I) of the same compound?
Its value is “NADH-independent (i.e. ubiquinone-dependent)”.

What about the “effect on pyruvate dehydrogenase (PDH)” value [7] of the same compound?
Its value is “inhibit pyruvate dehydrogenase (PDH) in an indirect fashion”.

And the EC50 (AML patient cells; read-out: Median EC50 in the AML population tested)?
Its EC50 is ~375 nM.

What about the EC50 (AML patient cells; read-out: median EC50, AML specimens with simultaneous mutations in NPM1, DNMT3A and FLT3-ITD) of the same compound?
The EC50 was 96 nM.

What about the EC50 (AML patient cells; read-out: median EC50, other AMLs subtypes) of the same compound?
The EC50 was 423 nM.

And the “sensitivity of HOX-high versus HOX-med/low AML cells” value (AML patient cells; dose response validation screening, large cohort)?
Its value is “significantly more sensitive”.

What about the “sensitivity of HOX-high versus HOX-med/low patient cells” value (AML patient cells; primary screen of 60 compounds) of the same compound?
The value was “significantly more sensitive”.
